Reference: paper PMC5218480 (PLoS ONE, 2017)

System: MV-4-11 cells
Experiment: Gene expression microarray analysis (Affymetrix PrimeView) and GSEA
Assay type: cell-based, human
Design: RFU PODN (11730768_x_at) / Fold change /veh PODN (11730768_x_at) / RFU LINC00158 (11744669_a_at) / Fold change /veh LINC00158 (11744669_a_at) / RFU DUSP10 (11751237_a_at) / Fold change /veh DUSP10 (11751237_a_at) / RFU ID3 (11757404_x_at) / Fold change /veh ID3 (11757404_x_at) / RFU PLEKHG5 (11737974_s_at) / Fold change /veh PLEKHG5 (11737974_s_at) / RFU LRRC4B (11730491_at) / Fold change /veh LRRC4B (11730491_at) / RFU GIMAP4 (11747438_a_at) / Fold change /veh GIMAP4 (11747438_a_at) / RFU KRT8 (11758183_x_at) / Fold change /veh KRT8 (11758183_x_at) / RFU CNN1 (11734310_a_at) / Fold change /veh CNN1 (11734310_a_at) / RFU VPS37D (11726825_at) / Fold change /veh VPS37D (11726825_at) / RFU C10orf10 (11716522_x_at) / Fold change /veh C10orf10 (11716522_x_at) / RFU KIR2DL2 /// KIR2DL4 /// KIR2DL5A /// KIR2DL5B /// KIR2DS1 /// KIR2DS2 /// KIR2DS3 /// KIR2DS4 /// KIR3DL3 /// KIR3DL3 /// KIR3DS1 (11738374_at) / Fold change /veh KIR2DL2 /// KIR2DL4 /// KIR2DL5A /// KIR2DL5B /// KIR2DS1 /// KIR2DS2 /// KIR2DS3 /// KIR2DS4 /// KIR3DL3 /// KIR3DL3 /// KIR3DS1 (11738374_at) / RFU C1QL1 (11718748_at) / Fold change /veh C1QL1 (11718748_at) / RFU TMPRSS4 (11747572_a_at) / Fold change /veh TMPRSS4 (11747572_a_at) / RFU HAMP (11756126_x_at) / Fold change /veh HAMP (11756126_x_at) / RFU RNFT2 (11725882_a_at) / Fold change /veh RNFT2 (11725882_a_at) / RFU NR4A2 (11747474_a_at) / Fold change /veh NR4A2 (11747474_a_at) / RFU ABCC12 (11746883_a_at) / Fold change /veh ABCC12 (11746883_a_at) / RFU TMEM136 (11760407_x_at) / Fold change /veh TMEM136 (11760407_x_at) / RFU CLDN22 /// WWC2 (11732394_at) / Fold change /veh CLDN22 /// WWC2 (11732394_at) / RFU HLA-DPB1 (11760878_x_at) / Fold change /veh HLA-DPB1 (11760878_x_at) / RFU SPINT1 (11716480_a_at) / Fold change /veh SPINT1 (11716480_a_at) / RFU GAP43 (11754022_s_at) / Fold change /veh GAP43 (11754022_s_at) / RFU A4GNT (11735810_at) / Fold change /veh A4GNT (11735810_at) / RFU PRB3 (11715151_x_at) / Fold change /veh PRB3 (11715151_x_at) / RFU TUBB4B (11761932_at) / Fold change /veh TUBB4B (11761932_at) / RFU CAPN14 (11732068_a_at) / Fold change /veh CAPN14 (11732068_a_at) / RFU TMCC2 (11721928_a_at) / Fold change /veh TMCC2 (11721928_a_at) / RFU IRGQ (11745062_a_at) / Fold change /veh IRGQ (11745062_a_at) / RFU FAM174B (11720279_a_at) / Fold change /veh FAM174B (11720279_a_at) / RFU TMPRSS4 (11748680_a_at) / Fold change /veh TMPRSS4 (11748680_a_at) / RFU FAM212B (11763350_a_at) / Fold change /veh FAM212B (11763350_a_at) / RFU PLEKHG5 (11743358_a_at) / Fold change /veh PLEKHG5 (11743358_a_at) / RFU ZSCAN30 (11745921_a_at) / Fold change /veh ZSCAN30 (11745921_a_at) / RFU CMKLR1 (11741424_a_at) / Fold change /veh CMKLR1 (11741424_a_at) / RFU LOC101060620 /// MAPK8IP1 (11723275_at) / Fold change /veh LOC101060620 /// MAPK8IP1 (11723275_at) / RFU SPTSSB (11747773_x_at) / Fold change /veh SPTSSB (11747773_x_at) / RFU PRSS12 (11739890_at) / Fold change /veh PRSS12 (11739890_at) / RFU BIN1 (11741810_x_at) / Fold change /veh BIN1 (11741810_x_at) / RFU WNT11 (11732464_a_at) / Fold change /veh WNT11 (11732464_a_at) / RFU C10orf10 (11716521_a_at) / Fold change /veh C10orf10 (11716521_a_at) / RFU C5orf56 (11738089_at) / Fold change /veh C5orf56 (11738089_at) / RFU CYB561 (11721691_x_at) / Fold change /veh CYB561 (11721691_x_at) / RFU ANKRD19P (11752326_a_at) / Fold change /veh ANKRD19P (11752326_a_at) / RFU OR2T12 /// OR2T33 /// OR2T8 (11738714_s_at) / Fold change /veh OR2T12 /// OR2T33 /// OR2T8 (11738714_s_at) / RFU VCAN (11748164_a_at) / Fold change /veh VCAN (11748164_a_at) / RFU JSRP1 (11732532_at) / Fold change /veh JSRP1 (11732532_at) / RFU KRTAP10-11 (11738290_x_at) / Fold change /veh KRTAP10-11 (11738290_x_at) / RFU MYO3A (11730013_a_at) / Fold change /veh MYO3A (11730013_a_at) / RFU EBF3 (11725865_a_at) / Fold change /veh EBF3 (11725865_a_at) / RFU CAMK2N1 (11719241_x_at) / Fold change /veh CAMK2N1 (11719241_x_at) / RFU C5orf56 (11738088_a_at) / Fold change /veh C5orf56 (11738088_a_at) / RFU OLFML3 (11715873_a_at) / Fold change /veh OLFML3 (11715873_a_at) / RFU LOC100653217 /// NTM (11731650_a_at) / Fold change /veh LOC100653217 /// NTM (11731650_a_at) / RFU MAPK11 (11762145_a_at) / Fold change /veh MAPK11 (11762145_a_at) / RFU FIZ1 (11724087_x_at) / Fold change /veh FIZ1 (11724087_x_at) / RFU OASL (11726364_x_at) / Fold change /veh OASL (11726364_x_at) / RFU SOX15 (11748057_x_at) / Fold change /veh SOX15 (11748057_x_at) / RFU CD79A (11719716_a_at) / Fold change /veh CD79A (11719716_a_at) / RFU HIST1H1D (11736915_at) / Fold change /veh HIST1H1D (11736915_at) / RFU CASKIN2 (11723855_a_at) / Fold change /veh CASKIN2 (11723855_a_at) / RFU LOC730098 (11760151_x_at) / Fold change /veh LOC730098 (11760151_x_at) / RFU OR4N2 (11742367_at) / Fold change /veh OR4N2 (11742367_at) / RFU PRRT2 (11749266_a_at) / Fold change /veh PRRT2 (11749266_a_at) / RFU SNX32 (11753110_a_at) / Fold change /veh SNX32 (11753110_a_at) / RFU CDHR5 (11726645_a_at) / Fold change /veh CDHR5 (11726645_a_at) / RFU RCAN1 (11760418_a_at) / Fold change /veh RCAN1 (11760418_a_at) / RFU FAM167A (11723789_a_at) / Fold change /veh FAM167A (11723789_a_at) / RFU FAM26E (11764081_at) / Fold change /veh FAM26E (11764081_at) / RFU ISYNA1 (11749810_s_at) / Fold change /veh ISYNA1 (11749810_s_at) / RFU ACY1 (11761880_at) / Fold change /veh ACY1 (11761880_at) / RFU 11764098_at / Fold change /veh 11764098_at / RFU SAMD14 (11745864_x_at) / Fold change /veh SAMD14 (11745864_x_at) / RFU NPB (11741838_a_at) / Fold change /veh NPB (11741838_a_at) / RFU TMPRSS6 (11731388_a_at) / Fold change /veh TMPRSS6 (11731388_a_at) / RFU KRTAP10-2 (11738614_at) / Fold change /veh KRTAP10-2 (11738614_at) / RFU ARHGAP8 /// PRR5-ARHGAP8 (11727945_x_at) / Fold change /veh ARHGAP8 /// PRR5-ARHGAP8 (11727945_x_at) / RFU KRTAP5-7 /// NADSYN1 (11734609_at) / Fold change /veh KRTAP5-7 /// NADSYN1 (11734609_at) / RFU RASL12 (11751679_a_at) / Fold change /veh RASL12 (11751679_a_at) / RFU CDKN2B (11736163_a_at) / Fold change /veh CDKN2B (11736163_a_at) / RFU PRF1 (11729649_at) / Fold change /veh PRF1 (11729649_at) / RFU, ZNF638 /// ZNF638-IT1 / Fold change vs veh, ZNF638 /// ZNF638-IT1 / RFU, PANK3 / Fold change vs veh, PANK3 / RFU, SH3YL1 / Fold change vs veh, SH3YL1 / RFU, ZEB2 / Fold change vs veh, ZEB2 / RFU, NRIP1 / Fold change vs veh, NRIP1 / RFU, PTTG1IP / Fold change vs veh, PTTG1IP / RFU, CAPN2 / Fold change vs veh, CAPN2 / RFU, MED14 / Fold change vs veh, MED14 / RFU, SNORA58 / Fold change vs veh, SNORA58 / RFU, C1orf63 / Fold change vs veh, C1orf63 / RFU, LRRFIP1 / Fold change vs veh, LRRFIP1 / RFU, NDUFAF7 / Fold change vs veh, NDUFAF7 / RFU, SLC12A2 / Fold change vs veh, SLC12A2 / RFU, IBTK / Fold change vs veh, IBTK / RFU, ESF1 / Fold change vs veh, ESF1 / Fold change vs veh, TMEM50B / RFU, TAOK1 / Fold change vs veh, TAOK1 / RFU, ACBD3 / Fold change vs veh, ACBD3 / RFU, TMA16 / Fold change vs veh, TMA16 / RFU, RWDD3 / Fold change vs veh, RWDD3 / RFU, BCAT1 / Fold change vs veh, BCAT1 / RFU, EDEM3 / Fold change vs veh, EDEM3 / RFU, TMEM33 / Fold change vs veh, TMEM33 / RFU, WDR75 / Fold change vs veh, WDR75 / RFU, AHCTF1 / Fold change vs veh, AHCTF1 / RFU, TFRC / Fold change vs veh, TFRC / RFU, ZDHHC17 / Fold change vs veh, ZDHHC17 / RFU, NOM1 / Fold change vs veh, NOM1 / RFU, ARL8B / Fold change vs veh, ARL8B / RFU, ZBTB11 / Fold change vs veh, ZBTB11 / RFU, TAMM41 / Fold change vs veh, TAMM41 / RFU, KIAA1704 /// LOC100996395 / Fold change vs veh, KIAA1704 /// LOC100996395 / RFU, ING1 / Fold change vs veh, ING1 / RFU, TRMT61B / Fold change vs veh, TRMT61B / RFU, FUBP3 / Fold change vs veh, FUBP3 / RFU, TP53 / Fold change vs veh, TP53 / RFU, TNKS2 / Fold change vs veh, TNKS2 / RFU, ZFP14 / Fold change vs veh, ZFP14 / RFU, ACTR2 / Fold change vs veh, ACTR2 / RFU, PPP3R1 / Fold change vs veh, PPP3R1 / RFU, PIK3R1 / Fold change vs veh, PIK3R1 / RFU, HNRNPA1 / Fold change vs veh, HNRNPA1 / RFU, RNF170 / Fold change vs veh, RNF170 / RFU, ZNF28 / Fold change vs veh, ZNF28 / RFU, RNGTT / Fold change vs veh, RNGTT / RFU, OGT / Fold change vs veh, OGT / RFU, BRD1 / Fold change vs veh, BRD1 / RFU, MARS / Fold change vs veh, MARS / RFU, ZNF655 / Fold change vs veh, ZNF655 / RFU, FAHD1 / Fold change vs veh, FAHD1 / RFU, BDP1 / Fold change vs veh, BDP1 / RFU, LRRCC1 / Fold change vs veh, LRRCC1 / RFU, ARID1A / Fold change vs veh, ARID1A / RFU, ZNF146 / Fold change vs veh, ZNF146 / RFU, ZNF330 / Fold change vs veh, ZNF330 / RFU, GPN3 / Fold change vs veh, GPN3 / RFU, C9orf123 / Fold change vs veh, C9orf123 / RFU, N4BP2L2 / Fold change vs veh, N4BP2L2 / RFU, ARFIP1 / Fold change vs veh, ARFIP1 / RFU, FAM179B / Fold change vs veh, FAM179B / RFU, BCL10 / Fold change vs veh, BCL10 / RFU, UHRF1BP1L / Fold change vs veh, UHRF1BP1L / RFU, BET1 / Fold change vs veh, BET1 / RFU, CNOT2 / Fold change vs veh, CNOT2 / RFU, ZNF268 / Fold change vs veh, ZNF268 / Fold change vs veh, ZNF507 / RFU, DGCR2 / Fold change vs veh, DGCR2 / RFU, WDSUB1 / Fold change vs veh, WDSUB1 / Fold change vs veh, HSP90B1 /// MIR3652 / RFU, ADSS / Fold change vs veh, ADSS / RFU, GK / Fold change vs veh, GK / RFU, ZNF148 / Fold change vs veh, ZNF148 / RFU, TAF9 / Fold change vs veh, TAF9 / RFU, SLC1A5 / Fold change vs veh, SLC1A5 / RFU, SLMO2 / Fold change vs veh, SLMO2 / RFU, ABCC4 / Fold change vs veh, ABCC4 / RFU, LOC101060439 /// RAP1B / Fold change vs veh, LOC101060439 /// RAP1B / RFU, RFX7 / Fold change vs veh, RFX7 / RFU, GTPBP10 / Fold change vs veh, GTPBP10 / RFU, CNEP1R1 / Fold change vs veh, CNEP1R1 / RFU, BIVM-ERCC5 /// ERCC5 / Fold change vs veh, BIVM-ERCC5 /// ERCC5 / RFU, ILF3 / Fold change vs veh, ILF3 / RFU 11762660_at / Fold change /veh 11762660_at / RFU VCAN (11757783_s_at) / Fold change /veh VCAN (11757783_s_at) / RFU DDX43 (11728927_at) / Fold change /veh DDX43 (11728927_at) / RFU KRT8 (11758188_x_at) / Fold change /veh KRT8 (11758188_x_at) / RFU NKD1 (11759106_at) / Fold change /veh NKD1 (11759106_at) / RFU SRD5A1 (11742802_a_at) / Fold change /veh SRD5A1 (11742802_a_at) / RFU TPSAB1 /// TPSB2 (11721975_s_at) / Fold change /veh TPSAB1 /// TPSB2 (11721975_s_at) / RFU GSTM3 (11746129_a_at) / Fold change /veh GSTM3 (11746129_a_at) / RFU IL23R (11737362_x_at) / Fold change /veh IL23R (11737362_x_at) / RFU TMEM51 (11727254_a_at) / Fold change /veh TMEM51 (11727254_a_at) / RFU PIWIL2 (11732686_x_at) / Fold change /veh PIWIL2 (11732686_x_at) / RFU ORM1 (11744905_x_at) / Fold change /veh ORM1 (11744905_x_at) / RFU CCDC152 (11743942_at) / Fold change /veh CCDC152 (11743942_at) / RFU ECM1 (11717891_a_at) / Fold change /veh ECM1 (11717891_a_at) / RFU IL23R (11748794_a_at) / Fold change /veh IL23R (11748794_a_at) / RFU TNFAIP8L3 (11732012_x_at) / Fold change /veh TNFAIP8L3 (11732012_x_at) / RFU MBOAT4 (11741988_at) / Fold change /veh MBOAT4 (11741988_at) / RFU 11764193_at / Fold change /veh 11764193_at / RFU TMEM53 (11763286_at) / Fold change /veh TMEM53 (11763286_at) / RFU MAGEB2 (11727129_at) / Fold change /veh MAGEB2 (11727129_at) / RFU TMEM200A (11744735_a_at) / Fold change /veh TMEM200A (11744735_a_at) / RFU CCDC152 (11751479_a_at) / Fold change /veh CCDC152 (11751479_a_at) / RFU FAM211A (11726209_a_at) / Fold change /veh FAM211A (11726209_a_at) / RFU RGS16 (11746705_a_at) / Fold change /veh RGS16 (11746705_a_at) / RFU VCAN (11755009_s_at) / Fold change /veh VCAN (11755009_s_at) / RFU RHOB (11743442_s_at) / Fold change /veh RHOB (11743442_s_at) / RFU RGS16 (11720943_a_at) / Fold change /veh RGS16 (11720943_a_at) / RFU RGS16 (11720944_at) / Fold change /veh RGS16 (11720944_at) / RFU, VPS4B / Fold change vs veh, VPS4B / RFU, CREB1 / Fold change vs veh, CREB1 / RFU, DNAJC13 / Fold change vs veh, DNAJC13 / RFU, GNAQ / Fold change vs veh, GNAQ / RFU, CDK5R1 / Fold change vs veh, CDK5R1 / RFU, ZRANB3 / Fold change vs veh, ZRANB3 / RFU, CUL4A / Fold change vs veh, CUL4A / RFU, CCNY / Fold change vs veh, CCNY / RFU, UFL1 / Fold change vs veh, UFL1 / RFU, COG3 / Fold change vs veh, COG3 / RFU, DIAPH2 / Fold change vs veh, DIAPH2 / RFU, SKA2 / Fold change vs veh, SKA2 / RFU, AFF3 / Fold change vs veh, AFF3 / RFU, LMF1 / Fold change vs veh, LMF1 / RFU, IPO11 / Fold change vs veh, IPO11 / RFU, DFFB / Fold change vs veh, DFFB / RFU, FOXP1 / Fold change vs veh, FOXP1 / RFU, CARD8 / Fold change vs veh, CARD8 / RFU, STRN3 / Fold change vs veh, STRN3 / RFU, ADK / Fold change vs veh, ADK / RFU, RASSF2 / Fold change vs veh, RASSF2 / RFU, WIPF1 / Fold change vs veh, WIPF1 / RFU, LARP1B / Fold change vs veh, LARP1B / RFU, RASA1 / Fold change vs veh, RASA1 / RFU, RB1 / Fold change vs veh, RB1 / RFU, PPFIA1 / Fold change vs veh, PPFIA1 / RFU, MAT2A / Fold change vs veh, MAT2A / RFU, CCT5 / Fold change vs veh, CCT5 / RFU, WDR92 / Fold change vs veh, WDR92 / RFU, CUX1 / Fold change vs veh, CUX1 / RFU, TTC7A / Fold change vs veh, TTC7A / RFU, TMEM135 / Fold change vs veh, TMEM135 / RFU, DEPTOR / Fold change vs veh, DEPTOR / RFU, CPM / Fold change vs veh, CPM / RFU, DNAJB6 / Fold change vs veh, DNAJB6 / RFU, CACNA2D3 / Fold change vs veh, CACNA2D3 / RFU, DTX4 / Fold change vs veh, DTX4 / RFU, TFCP2 / Fold change vs veh, TFCP2 / RFU, GMCL1 /// GMCL1P1 / Fold change vs veh, GMCL1 /// GMCL1P1 / RFU, AEBP2 / Fold change vs veh, AEBP2 / RFU, SNHG1 /// SNORD22 /// SNORD25 /// SNORD26 /// SNORD27 /// SNORD28 /// SNORD29 /// SNORD31 / Fold change vs veh, SNHG1 /// SNORD22 /// SNORD25 /// SNORD26 /// SNORD27 /// SNORD28 /// SNORD29 /// SNORD31 / Fold change (Aza/veh), C12orf56 (ProbeSet 11735607_a_at) / Fold change (ACY-1035/veh), C12orf56 (ProbeSet 11735607_a_at) / Fold change (Aza/veh), FGFR1OP (ProbeSet 11751329_s_at) / Fold change (ACY-1035/veh), FGFR1OP (ProbeSet 11751329_s_at) / Fold change (Aza/veh), VPS36 (ProbeSet 11739960_a_at) / Fold change (ACY-1035/veh), VPS36 (ProbeSet 11739960_a_at) / RFU SYPL1 (11715823_x_at) / Fold change /veh SYPL1 (11715823_x_at) / RFU IGFBP7 (11715501_s_at) / Fold change /veh IGFBP7 (11715501_s_at) / RFU REEP3 (11722064_at) / Fold change /veh REEP3 (11722064_at) / RFU IGLL1 (11728026_x_at) / Fold change /veh IGLL1 (11728026_x_at): dose or concentration left out as unconfirmed
Conditions: MV-4-11 cells, 48 hours

Nc1ccc(-c2cccs2)cc1NC(=O)c1ccc2c(c1)cc(C1CC1)n2CCN1CCOCC1 [ACY-1035]
Fold change /veh IL23R (11737362_x_at): 1.14
